Measurements from patent publication US20230404969A1, “COMPOSITIONS AND METHOD FOR EFFECTIVE MANAGEMENT OF PERITONITIS” (priority 2022, published 2023).

Experiments:
CD4+ T cells = assay: Zymosan peritonitis chronic study: peripheral blood CD4+ T cell population (flow cytometry); type: in vivo, mouse; conditions: Withanone 2 mg/kg, day 36
Procedure: (§1) Peritoneal inflammation was induced by Zymosan A (Sigma Chemical) (Masashi et al. Zymosan, but Not Lipopolysaccharide, Triggers Severe and Progressive Peritoneal Injury Accompanied by complement Activation in a Rat Peritonitis Model) was prepared freshly in sterile, 0.9% w/v saline, and 0.5 ml was injected i.p. from day 0 to Day 5. The lymphocyte population in the peripheral blood was determined with a flow cytometer. Cells were phenotyped by flow cytometry with the following primary antibodies: CD4 (FITC) and CD8 (PE). Cells were gated broadly on all live lymphocyte cells, with only debris and multiple cell clusters being excluded. Analysis of mean fluorescence intensity was done and percentage cell population was evaluated. The test drugs were administered for 30 days after the induction of peritonitis. […]
Flow cytometry enables the characterization of cells and subcellular organelles on the basis of size and granularity and a number of different parameters defined by fluorescent probes. […] Fluorochrome labelled monoclonal antibodies directed against co-receptors CD4 and CD8 were used to quantify the lymphocyte subsets in a multiparametric flow cytometric assay. […]

IL-6 = assay: Cytometric Bead Array of peritoneal fluid, chronic zymosan peritonitis: IL-6; type: in vivo, mouse; conditions: 2 mg/kg, vs Zymosan control
Procedure: as §1, with “evaluated.” for “evaluated. The test drugs were administered for 30 days after the induction of peritonitis.”
The Cytometric Bead Array (Mouse Inflammation kit) was used to study cytokines in peritoneal fluid. […] Briefly, a mixture of 6 capture bead populations (50 μl) with distinct fluorescence intensities (detected in FL3) coated with antibodies specific for the above cytokines was mixed with each sample/standard (50 μl). […] Following acquisition of data by two colour cytometric analysis, the sample results were analysed using CBA software (BD Biosciences). […] Individual cytokine concentration ratios were indicated by their fluorescent intensities and was determined by interpolation from the corresponding standard curve.

IL-1β = assay: Intracellular IL-1β estimation in LPS activated murine neutrophils (flow cytometry); type: cell-based; conditions: 5 μg/ml, LPS 1 μg/ml, 3 h, ↑ upregulation
Procedure: Flowcytometric studies were carried out to determine the anti-inflammatory effect of active constituents of Withania somnifera extract on TNF-α and IL-1β cytokine expression in LPS activated murine neutrophils.
TNF-α and Interleukin 1 beta (IL-1β) cytokines play a major role in the pathogenesis of septic shock induced by LPS (Lipopolysaccharide) endotoxin injection. LPS is an important triggering factor for in vivo systemic inflammatory response. LPS activates neutrophils via engagement of TLR4 (Toll-like receptor 4), resulting in the induction of a characteristic proinflammatory phenotype and prolongation of cell lifespan. In brief, neutrophils extraction was performed by taking murine blood and centrifuging it at 250 g for 20 min. Middle layer was taken and layered with histopaque and incubated for 10 min. The samples were centrifuged at 700 g, the upper layer was taken and Facs Lysing solution added for the lysis of any traces of RBC. The samples were washed with PBS (200 g) for 10 min. Neutrophils were stimulated with. LPS (1 μg/ml) and incubated with test samples for 3 h, in CO2 incubator. […] A fluorescence trigger was set on the […] parameter of the gated neutrophil populations (10,000 events). Fluorescence compensation, data analysis, and data presentation was performed using Cell Quest Pro software (Beckton—Dickinson Biosciences, CA, USA). […]

Procalcitonin = Procalcitonin in serum (ELISA), chronic zymosan peritonitis; type: in vivo, mouse; conditions: 2 mg/kg
Procedure: Peritoneal inflammation was induced by Zymosan A (Sigma Chemical) (Masashi et al. Zymosan, but Not Lipopolysaccharide, Triggers Severe and Progressive Peritoneal Injury Accompanied by complement Activation in a Rat Peritonitis Model) was prepared freshly in sterile, 0.9% w/v saline, and 0.5 ml was injected i.p. from day 0 to Day 5. The lymphocyte population in the peripheral blood was determined with a flow cytometer. Cells were phenotyped by flow cytometry with the following primary antibodies: CD4 (FITC) and CD8 (PE). Cells were gated broadly on all live lymphocyte cells, with only debris and multiple cell clusters being excluded. Analysis of mean fluorescence intensity was done and percentage cell population was evaluated. The test drugs were administered for 30 days after the induction of peritonitis. On 36th day the peritoneal cavity was lavaged with 1.5 ml saline, and after a 30-s gentle manual massage, 0.5 ml exudate was retrieved, centrifuged at 3000 g for 3 min, and frozen at […] prior to cytokine and chemotactic-factor assessment.
Procalcitonin is a precursor for calcitonin, a peptide hormone involved in calcium homeostasis. In response to pro-inflammatory stimulus of bacterial origin, the procalcitonin level rises. The blood was collected from retro-orbital plexus from the animals of all groups. The blood was allowed to stand for 2 hrs without addition of anti-coagulant. […]

## CC1=C(C)C(=O)O[C@@H]([C@@H](C)[C@@]2(O)CC[C@H]3[C@@H]4[C@@H]5O[C@@H]5[C@@]5(O)CC=CC(=O)[C@]5(C)[C@H]4CC[C@@]32C)C1 [Withanone]
CD4+ T cells
  Inhibition of CD4+ compared to T cell population of Zymosan control: 46%
IL-6
  Inhibition of IL-6: 61%
IL-1β
  Percentage IL-1β inhibition compared to LPS control: 32%
Procalcitonin
  Decrease of expression level of procalcitonin compared to the Zymosan control: ~60%
